US20260248783A1 (ASCLETIS BIOSCIENCE CO., LTD., priority 2021, published 2026)

Legend:
PD-1/PD-L1 = molecular target: T1, PD-1/PD-L1 (Homo sapiens, UniProt Q9NZQ7); assay: PD-1/PD-L1 Homogeneous Time-Resolved Fluorescence (HTRF) Binding Assay; conditions: PD-1/PD-L1 HTRF activity; 3 nM PD1, 10 nM PD-L1, 25° C.
T1 construct: Recombinant human PD-L1 protein (19-238) with a Histag at the C-terminus; purchased AcroBiosystems PD1-H5229 (PD-L1); PD1-H5257 (PD-1)
Outline: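 Human PD-L1 (19-238, His-tag) 10 nM and PD-1 (25-167, Fc-tag) 3 nM preincubated 40 min with inhibitor in PBS pH 7.4, 0.05% Tween-20, 0.1% BSA, 1% DMSO, 25 °C. Eu-anti-human IgG (1 nM) and anti-His-APC (20 nM) added, 60 min, 665/620 nm ratio; IC50 from percent control activity versus log concentration.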

[1] = molecular target: T2, extracellular domains of PD-L1 (Homo sapiens, UniProt Q9NZQ7); assay: PD-L1 Dimerization; type: biochemical; conditions: PD-L1-Eu and PD-L1-A2, ratio 665 nm/615 nm
T2 construct: specifically dimerize the extracellular domains of PD-L1
T2 sequence (Q9NZQ7 19-238 limits assumed): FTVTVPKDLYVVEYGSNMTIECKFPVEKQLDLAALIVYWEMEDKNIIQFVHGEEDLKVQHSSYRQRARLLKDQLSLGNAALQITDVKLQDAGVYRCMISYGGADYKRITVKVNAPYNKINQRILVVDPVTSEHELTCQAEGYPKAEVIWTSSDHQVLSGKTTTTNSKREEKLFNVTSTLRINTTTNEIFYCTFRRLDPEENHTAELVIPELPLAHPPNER
Procedure: Example 108. PD-L1 Dimerization
Compounds were tested in biochemical protein-protein interaction assays to determine if they can specifically dimerize the extracellular domains of PD-L1. • (1) Diluted cpd 1:3 in succession in DMSO for each column for 10 samples • (2) Transferred 0.2 μL cpds solution in each row to 384 assay plate using Echo, each column containing 2 replicates • (3) Added 20 μL prepared mixture include PD-L1-Eu and PD-L1-A2 solution to assay plate, centrifuged at 1000 rpm for 1 min. • (4) Incubated at 25° C. for […]. • (5) Read fluorescence signal on Envision 2104 plate reader. • (6) Read the Ratio (665 nm/615 nm) signal on Envision. • (7) Analyzed the raw data using the equation (V. Data analysis)

T1 sequence (Q9NZQ7 19-238): as the sequence (Q9NZQ7 19-238 limits assumed) above

| Compound | IC50 (PD-1/PD-L1) [nM] | EC50 [1] [nM] |
| --- | --- | --- |
| Cc1cn2nc(-c3cccc(-c4cccc(-c5cc6c(=O)n(CCN[C@](C)(CO)C(=O)O)c(C)cn6n5)c4Cl)c3Cl)cc2c(=O)n1CCN[C@](C)(CO)C(=O)O [Compound 96, (2R,2′R)-2,2′-((((2,2′-dichloro-[1,1′-biphenyl]-3,3′-diyl)bis(6-methyl-4-oxopyrazolo[1,5-a]pyrazine-2,5(4H)-diyl))bis(ethane-2,1-diyl))bis(azanediyl))bis(3-hydroxy-2-methylpropanoic acid)] | 10 to 100 | ≥ 100 |
| Cc1cn2nc(-c3cccc(-c4cccc(-c5cc6c(=O)n(CCN[C@H]7C[C@@H](O)C7)c(C)cn6n5)c4Cl)c3Cl)cc2c(=O)n1CCN[C@H]1C[C@@H](O)C1 [Compound 91, 2,2′-(2,2′-dichloro-[1,1′-biphenyl]-3,3′-diyl)bis(5-(2-(((1s,3s)-3-hydroxycyclobutyl)amino)ethyl)-6-methylpyrazolo[1,5-a]pyrazin-4(5H)-one)] | < 10 | < 50 |
| Cc1cn2nc(-c3cccc(-c4cccc(-c5cc6c(=O)n(CCN[C@]7(C(=O)O)C[C@@H](O)C7)c(C)cn6n5)c4Cl)c3Cl)cc2c(=O)n1CCN[C@]1(C(=O)O)C[C@@H](O)C1 [Compound 101, (1r,1′r,3r,3′r)-1,1′-((((2,2′-dichloro-[1,1′-biphenyl]-3,3′-diyl)bis(6-methyl-4-oxopyrazolo[1,5-a]pyrazine-2,5(4H)-diyl))bis(ethane-2,1-diyl))bis(azanediyl))bis(3-hydroxycyclobutane-1-carboxylic acid)] | < 10 | < 50 |
| Cc1cn2nc(-c3cccc(-c4cccc(-c5cc6c(=O)n(CCN[C@H]7C[C@H](O)C7)c(C)cn6n5)c4Cl)c3Cl)cc2c(=O)n1CCN[C@H]1C[C@H](O)C1 [Compound 90, 2,2′-(2,2′-dichloro-[1,1′-biphenyl]-3,3′-diyl)bis(5-(2-(((1r,3r)-3-hydroxycyclobutyl)amino)ethyl)-6-methylpyrazolo[1,5-a]pyrazin-4(5H)-one)] | < 10 | < 50 |
| Cn1c(CN[C@@H](CO)C(=O)O)cn2nc(-c3cccc(-c4cccc(-c5cc6c(=O)n(C)c(CN[C@@H](CO)C(=O)O)cn6n5)c4Cl)c3Cl)cc2c1=O [Compound 80, (2S,2'S)-2,2′-((((2,2′-dichloro-[1,1′-biphenyl]-3,3′-diyl)bis(5-methyl-4-oxo-4,5-dihydropyrazolo[1,5-a]pyrazine-2,6-diyl))bis(methylene))bis(azanediyl))bis(3-hydroxypropanoic acid)] | 10 to 100 | ≥ 100 |
| Cn1c(CN2CC[C@H](C(=O)O)C2)cn2cc(-c3cccc(-c4cccc(-c5cc6c(=O)n(C)c(CN7CC[C@H](C(=O)O)C7)cn6c5)c4Cl)c3Cl)cc2c1=O [Compound 43, (3S,3'S)-1,1′-(((2,2′-dichloro-[1,1′-biphenyl]-3,3′-diyl)bis(2-methyl-1-oxo-1,2-dihydropyrrolo[1,2-a]pyrazine-7,3-diyl))bis(methylene))bis(pyrrolidine-3-carboxylic acid)] | 10 to 100 | 50 to 100 |
| Cc1cn2nc(-c3cccc(-c4cccc(-c5cc6c(=O)n(CCN[C@@](C)(CO)C(=O)O)c(C)cn6n5)c4Cl)c3Cl)cc2c(=O)n1CCN[C@@](C)(CO)C(=O)O [Compound 95, (2S,2'S)-2,2′-((((2,2′-dichloro-[1,1′-biphenyl]-3,3′-diyl)bis(6-methyl-4-oxopyrazolo[1,5-a]pyrazine-2,5(4H)-diyl))bis(ethane-2,1-diyl))bis(azanediyl))bis(3-hydroxy-2-methylpropanoic acid)] | 10 to 100 | ≥ 100 |
| Cc1cn2nc(-c3cccc(-c4cccc(-c5cc6c(=O)n(CCN[C@@H](CN)C(=O)O)c(C)cn6n5)c4Cl)c3Cl)cc2c(=O)n1CCNC(CN)C(=O)O (stereo in doubt) [Compound 67, (2S,2'S)-2,2′-((((2,2′-dichloro-[1,1′-biphenyl]-3,3′-diyl)bis(6-methyl-4-oxopyrazolo[1,5-a]pyrazine-2,5(4H)-diyl))bis(ethane-2,1-diyl))bis(azanediyl))bis(3-aminopropanoic acid)] | ≥ 100 |  |
| Cc1cn2nc(-c3cccc(-c4cccc(-c5cc6c(=O)n(CCN[C@H](C(=O)O)[C@@H](C)O)c(C)cn6n5)c4Cl)c3Cl)cc2c(=O)n1CCN[C@H](C(=O)O)[C@@H](C)O [Compound 60, (2S,2'S,3R,3′R)-2,2′-((((2,2′-dichloro-[1,1′-biphenyl]-3,3′-diyl)bis(6-methyl-4-oxopyrazolo[1,5-a]pyrazine-2,5(4H)-diyl))bis(ethane-2,1-diyl))bis(azanediyl)) bis(3-hydroxybutanoic acid)] | 10 to 100 |  |
| Cc1cn2nc(-c3cccc(-c4cccc(-c5cc6c(=O)n(CCN7CCOCC7C(=O)O)c(C)cn6n5)c4Cl)c3Cl)cc2c(=O)n1CCN1CCOCC1C(=O)O (stereo not drawn) [Compound 86, 4,4′-(((2,2′-dichloro-[1,1′-biphenyl]-3,3′-diyl)bis(6-methyl-4-oxopyrazolo[1,5-a]pyrazine-2,5(4H)-diyl))bis(ethane-2,1-diyl))bis(morpholine-3-carboxylic acid)] | ≥ 100 |  |
| O=C1CC[C@@H](Cn2ccn3c(F)c(-c4cccc(-c5cccc(-c6nc7c(=O)n(C[C@@H]8CCC(=O)N8)ccn7c6F)c5Cl)c4Cl)nc3c2=O)N1 [Compound 13, 2,2′-(2,2′-dichloro-[1,1′-biphenyl]-3,3′-diyl)bis(3-fluoro-7-(((S)-5-oxopyrrolidin-2-yl)methyl)imidazo[1,2-a]pyrazin-8(7H)-one)] | ≥ 100 |  |
| Cc1cn2cc(-c3cccc(-c4cccc(-c5cc6c(=O)n(CCN7CC[C@H](O)C7)c(C)cn6c5)c4Cl)c3Cl)cc2c(=O)n1CCN1CC[C@H](O)C1 [Compound 48, 7,7′-(2,2′-dichloro-[1,1′-biphenyl]-3,3′-diyl)bis(2-(2-((S)-3-hydroxypyrrolidin-1-yl)ethyl)-3-methylpyrrolo[1,2-a]pyrazin-1(2H)-one)] | 10 to 100 |  |
| CC(=O)NCCNCCn1c(C)cn2cc(-c3cccc(-c4cccc(-c5cc6c(=O)n(CCNCCNC(C)=O)c(C)cn6c5)c4Cl)c3Cl)cc2c1=O [Compound 54, N,N′-(((((2,2′-dichloro-[1,1′-biphenyl]-3,3′-diyl)bis(3-methyl-1-oxopyrrolo[1,2-a]pyrazine-7,2(1H)-diyl))bis(ethane-2,1-diyl))bis(azanediyl))bis(ethane-2,1-diyl))diacetamide] | < 10 |  |
| O=C1CCC(Cn2cnn3cc(-c4cccc(-c5cccc(-c6cc7c(=O)n(CC8CCC(=O)O8)cnn7c6)c5Cl)c4Cl)cc3c2=O)O1 (stereo not drawn) [Compound 27, 6,6′-(2,2′-dichloro-[1,1′-biphenyl]-3,3′-diyl)bis(3-((5-oxotetrahydrofuran-2-yl)methyl)pyrrolo[2,1-f][1,2,4]triazin-4(3H)-one)] | ≥ 100 |  |
| O=c1c2cc(-c3cccc(-c4cccc(-c5cc6c(=O)n(CCn7nccn7)cnn6c5)c4Cl)c3Cl)cn2ncn1CCn1nccn1 [Compound 25, 6,6′-(2,2′-dichloro-[1,1′-biphenyl]-3,3′-diyl)bis(3-(2-(2H-1,2,3-triazol-2-yl)ethyl)pyrrolo[2,1-f][1,2,4]triazin-4(3H)-one)] | 10 to 100 |  |
| O=C1CC[C@@H](Cn2ccc3sc(-c4cccc(-c5cccc(-c6cc7c(=O)n(C[C@@H]8CCC(=O)N8)ccc7s6)c5Cl)c4Cl)cc3c2=O)N1 [Compound 8, 2,2′-(2,2′-dichloro-[1,1′-biphenyl]-3,3′-diyl)bis(5-(((S)-5-oxopyrrolidin-2-yl)methyl)thieno[3,2-c]pyridin-4(5H)-one)] | 10 to 100 |  |
| O=C1NCCN1CCn1cnn2cc(-c3cccc(-c4cccc(-c5cc6c(=O)n(CCN7CCNC7=O)cnn6c5)c4Cl)c3Cl)cc2c1=O [Compound 19, 6,6′-(2,2′-dichloro-[1,1′-biphenyl]-3,3′-diyl)bis(3-(2-(2-oxoimidazolidin-1-yl)ethyl)pyrrolo[2,1-f][1,2,4]triazin-4(3H)-one)] | ≥ 100 |  |
| O=C1CC[C@@H](Cn2ccn3nc(-c4cccc(-c5cccc(-c6cc7c(=O)n(C[C@@H]8CCC(=O)N8)ccn7n6)c5Cl)c4Cl)cc3c2=O)N1 [Compound 7, 2,2′-(2,2′-dichloro-[1,1′-biphenyl]-3,3′-diyl)bis(5-(((S)-5-oxopyrrolidin-2-yl)methyl)pyrazolo[1,5-a]pyrazin-4(5H)-one)] | < 10 |  |
| O=C1CC[C@@H](Cn2c(C3CC3)cn3cc(-c4cccc(-c5cccc(-c6cc7c(=O)n(C[C@@H]8CCC(=O)N8)c(C8CC8)cn7c6)c5Cl)c4Cl)cc3c2=O)N1 [Compound 31, 7,7′-(2,2′-dichloro-[1,1′-biphenyl]-3,3′-diyl)bis(3-cyclopropyl-2-(((S)-5-oxopyrrolidin-2-yl)methyl)pyrrolo[1,2-a]pyrazin-1(2H)-one)] | 10 to 100 |  |
| CC(=O)NC[C@H](NCCn1c(C)cn2nc(-c3cccc(-c4cccc(-c5cc6c(=O)n(CCN[C@@H](CNC(C)=O)C(=O)O)c(C)cn6n5)c4Cl)c3Cl)cc2c1=O)C(=O)O [Compound 68, (2S,2'S)-2,2′-((((2,2′-dichloro-[1,1′-biphenyl]-3,3′-diyl)bis(6-methyl-4-oxopyrazolo[1,5-a]pyrazine-2,5(4H)-diyl))bis(ethane-2,1-diyl))bis(azanediyl))bis(3-acetamidopropanoic acid)] | 10 to 100 |  |
